Measured values as given in patent US10457707B2, “Substituted urea depsipeptide analogs as activators of the CLPP endopeptidase” (priority 2015, dated 2019).
In brackets after ≈: the same amount, converted by molar mass. Where two headings read alike, the source gives them in different places. *1 amine or outer side, *2 acyl side, *3 side chain or, on linkers, in order; H or OH if unused. Where a SMILES comes first, the peptide text is derived from it. Bridges are numbered along the chain shown (N, C = ends). [ ]: non-standard residue; d: D form. The star is where a group is joined. NH(1,3-benzodioxol-5-yl) = c1cc2c(cc1N*)OCO2; Phe(3,5-F2) = N[C@@H](Cc1cc(F)cc(F)c1)C(=O)O; NH(1-Me-indolin-5-yl) = CN1CCc2cc(N*)ccc21; Morpholine(3S-CO) = O=C(O)[C@@H]1COCCN1; NH(4-Cl-2-F-phenyl) = Fc1cc(Cl)ccc1N*; Pro(4R-Me) = C[C@H]1CN[C@H](C(=O)O)C1; NH(3,4-Me2-phenyl) = Cc1ccc(N*)cc1C; Hyp = O=C(O)[C@@H]1C[C@@H](O)CN1; NH(4-Et-phenyl) = CCc1ccc(N*)cc1; Heptenoyl(2E) = CCCC/C=C/C(=O)*; aThr = C[C@H](O)[C@H](N)C(=O)O; Pip = O=C(O)[C@@H]1CCCCN1; X2 = CN1CCc2ccc(N*)cc21; X4 = c1cc2c(cc1N*)CCC2; CO = O=C([*:1])[*:2]

Experiments:
Type in all cases: cell-based
[1] = Cytotoxicity assay (CellTiter-Glo cell viability, 72 hours); conditions: African green monkey
In short: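 Vero cells, 5000/well, grown overnight at 37° C, 5% CO2 in DMEM with 10% FBS, then exposed to serial compound dilutions or DMSO for 72 hours. Viability read by CellTiter-Glo luminescence. IC50 from duplicate wells, reported as range over two independent experiments.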

[2] = test system: Enterococcus faecalis, ATCC 33186; experiment: Minimal inhibitory concentration assay (microbroth dilution)
In short: (§1)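 CLSI broth microdilution; 2-fold series from 200 μM final; inoculum ~10^5 cfu/mL; 37 °C, aerobic, overnight; visual MIC = lowest conc. without growth. The ClpP-inactivated USA 300 strain is the comparator for ClpP-dependent killing.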

[3] = test system: Staphylococcus aureus, USA 300 wherein ClpP is inactivated; experiment: Minimal inhibitory concentration assay
In short: as §1

[4] = test system: Staphylococcus aureus, USA 300; experiment: Minimal inhibitory concentration assay; conditions: USA300, read-out: Minimal Inhibitory Concentrations S. aureus USA 300
In short: as §1

[5] = test system: Streptococcus pneumoniae, R6; experiment: Minimal inhibitory concentration assay; conditions: read-out: Minimal Inhibitory Concentrations S. pneumoniae R6
In short: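 Microbroth dilution with two-fold serial compound dilutions in broth, incubated aerobically overnight at 37° C. MIC taken as the lowest concentration preventing bacterial growth.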

[6] = Vero cells, 72 hours, growth inhibition, read-out: Cytotoxicity IC50
[7] = Enterococcus faecalis, ATCC33186, read-out: Minimal Inhibitory Concentrations E. faecalis ATCC 33186
[8] = Enterococcus faecalis, ATCC33186; read-out: Minimal Inhibitory Concentrations E. faecalis ATCC 33186

Compound | IC50 at 72 h [1, 6] [µM] | MIC [2, 7] [µM] | Minimal Inhibitory Concentrations S. aureus USA 300 ΔClpP [3] [µM] | MIC [4] [µM] | IC50 at 72 h [1] [µM] | MIC [2, 8] [µM] | MIC [5] [µM]
C[C@@H]1C[C@H]2C(=O)O[C@@H](C)[C@H](NC(=O)[C@H](Cc3cc(F)cc(F)c3)NC(=O)Nc3ccc4c(c3)N(C)CC4)C(=O)N3CCC[C@H]3C(=O)N3CCCC[C@H]3C(=O)N[C@@H](C)C(=O)N2C1 [Compound 321, (S)-3-(3,5-difluorophenyl)-2-(3-(1-methylindolin-6-yl)ureido)-N-((2R,6S,8aS,14aS,20S,21S,23aS)-2,6,21-trimethyl-5,8,14,19,23-pentaoxooctadecahydro-1H,5H,14H,19H-pyrido[2,1-i]dipyrrolo[2,1-c:2′,1′-l][1]oxa[4,7,10,13]tetraazacyclo-hexadecin-20-yl)propanamide] ({X2-CO}-[Phe(3,5-F2)][aThr]P[Pip]A[Pro(4R-Me)]; ester 2-C) | 1.39 ± 0.1 | 0.078 (≈ 0.0662 µg/mL) | <0.098 | < 0.098 |  |  | 
CCCC/C=C/C(=O)N[C@@H](Cc1cc(F)cc(F)c1)C(=O)N[C@@H]1C(=O)N2C[C@H](O)C[C@H]2C(=O)N2CCCC[C@H]2C(=O)N[C@@H](C)C(=O)N2C[C@H](C)C[C@H]2C(=O)O[C@H]1C [Compound 301, (E)-N—((S)-3-(3,5-difluorophenyl)-1-(((2R,6S,8aS,14aS,16R,20S,21S,23aS)-16-hydroxy-2,6,21-trimethyl-5,8,14,19,23-pentaoxooctadecahydro-1H,5H,14H,19H-pyrido[2,1-i]dipyrrolo[2,1-c:2′,1′-l][1]oxa[4,7,10,13]tetraazacyclohexadecin-20-yl)amino)-1-oxopropan-2-yl)hept-2-enamide] ({Heptenoyl(2E)}-[Phe(3,5-F2)][aThr][Hyp][Pip]A[Pro(4R-Me)]; ester 2-C) | 61.1 ± 1.7 | < 0.0098 | >20 | 0.079 (≈ 0.0633 µg/mL) |  |  | 
C[C@@H]1C[C@H]2C(=O)O[C@@H](C)[C@H](NC(=O)[C@H](Cc3cc(F)cc(F)c3)NC(=O)Nc3ccc4c(c3)OCO4)C(=O)N3C[C@H](O)C[C@H]3C(=O)N3CCOC[C@H]3C(=O)N[C@@H](C)C(=O)N2C1 [Compound 319, (S)-2-(3-(benzo[d][1,3]dioxol-5-yl)ureido)-3-(3,5-difluorophenyl)-N-((6aS,8R,12S,13S,15aS,17R,21S,23aS)-8-hydroxy-13,17,21-trimethyl-6,11,15,20,23-pentaoxooctadecahydro-6H,11H,15H-[1,4]oxazino[3,4-i]dipyrrolo[2,1-c:2′,1′-l][1]oxa[4,7,10,13]tetraazacyclo-hexadecin-12-yl)propanamide] ({NH(1,3-benzodioxol-5-yl)-CO}-[Phe(3,5-F2)][aThr][Hyp][Morpholine(3S-CO)]A[Pro(4R-Me)]; ester 2-C) |  |  | 25 | 25 (≈ 21.4 µg/mL) | > 100 | 0.313 (≈ 0.268 µg/mL) | 
C[C@@H]1C[C@H]2C(=O)O[C@@H](C)[C@H](NC(=O)[C@H](Cc3cc(F)cc(F)c3)NC(=O)Nc3ccc4c(c3)CCN4C)C(=O)N3CCC[C@H]3C(=O)N3CCCC[C@H]3C(=O)N[C@@H](C)C(=O)N2C1 [Compound 310, (S)-3-(3,5-difluorophenyl)-2-(3-(1-methylindolin-5-yl)ureido)-N-((2R,6S,8aS,14aS,20S,21S,23aS)-2,6,21-trimethyl-5,8,14,19,23-pentaoxooctadecahydro-1H,5H,14H,19H-pyrido[2,1-i]dipyrrolo[2,1-c:2′,1′-l][1]oxa[4,7,10,13]tetraazacyclo-hexadecin-20-yl)propanamide] ({NH(1-Me-indolin-5-yl)-CO}-[Phe(3,5-F2)][aThr]P[Pip]A[Pro(4R-Me)]; ester 2-C) | 0.4 ± 0.01 | 0.313 (≈ 0.266 µg/mL) | >20 | 0.078 (≈ 0.0662 µg/mL) |  |  | 
C[C@@H]1C[C@H]2C(=O)O[C@@H](C)[C@H](NC(=O)[C@H](Cc3cc(F)cc(F)c3)NC(=O)Nc3ccc(Cl)cc3F)C(=O)N3CCC[C@H]3C(=O)N3CCCC[C@H]3C(=O)N[C@@H](C)C(=O)N2C1 [Compound 307, (S)-2-(3-(4-chloro-2-fluorophenyl)ureido)-3-(3,5-difluorophenyl)-N-((2R,6S,8aS,14aS,20S,21S,23aS)-2,6,21-trimethyl-5,8,14,19,23-pentaoxooctadecahydro-1H,5H,14H,19H-pyrido[2,1-i]dipyrrolo[2,1-c:2′,1′-l][1]oxa[4,7,10,13]tetraazacyclo-hexadecin-20-yl)propanamide] ({NH(4-Cl-2-F-phenyl)-CO}-[Phe(3,5-F2)][aThr]P[Pip]A[Pro(4R-Me)]; ester 2-C) |  |  | >20 | < 0.02 | 9.5 ± 0.8 | < 0.02 | 
C[C@@H]1C[C@H]2C(=O)O[C@@H](C)[C@H](NC(=O)[C@H](Cc3cc(F)cc(F)c3)NC(=O)Nc3ccc4c(c3)CCC4)C(=O)N3CCC[C@H]3C(=O)N3CCCC[C@H]3C(=O)N[C@@H](C)C(=O)N2C1 [Compound 302, (S)-3-(3,5-difluorophenyl)-2-(3-(2,3-dihydro-1H-INDEN-5-yl)ureido)-N-((2R,6S,8aS,14aS,20S,21S,23aS)-2,6,21-trimethyl-5,8,14,19,23-pentaoxooctadecahydro-1H,5H,14H,19H-pyrido[2,1-i]dipyrrolo[2,1-c:2′,1′-l][1]oxa[4,7,10,13]tetraazacyclohexadecin-20-yl)propanamide] ({X4-CO}-[Phe(3,5-F2)][aThr]P[Pip]A[Pro(4R-Me)]; ester 2-C) | 13.2 ± 1.1 | 0.02 (≈ 0.0167 µg/mL) | >20 | 0.059 (≈ 0.0492 µg/mL) |  |  | 
Cc1ccc(NC(=O)N[C@@H](Cc2cc(F)cc(F)c2)C(=O)N[C@@H]2C(=O)N3C[C@H](O)C[C@H]3C(=O)N3CCCC[C@H]3C(=O)N[C@@H](C)C(=O)N3C[C@H](C)C[C@H]3C(=O)O[C@H]2C)cc1C [Compound 212, (S)-3-(3,5-difluorophenyl)-2-(3-(3,4-dimethylphenyl)ureido)-N-((2R,6S,8aS,14aS,16R,20S,21S,23aS)-16-hydroxy-2,6,21-trimethyl-5,8,14,19,23-pentaoxooctadecahydro-1H,5H,14H,19H-pyrido[2,1-i]dipyrrolo[2,1-c:2′,1′-l][1]oxa[4,7,10,13]tetraazacyclohexadecin-20-yl)propanamide] ({NH(3,4-Me2-phenyl)-CO}-[Phe(3,5-F2)][aThr][Hyp][Pip]A[Pro(4R-Me)]; ester 2-C) |  |  | >200 | 0.1 (≈ 0.0838 µg/mL) |  |  | 0.002 (≈ 0.00168 µg/mL)
Cc1ccc(NC(=O)N[C@@H](Cc2cc(F)cc(F)c2)C(=O)N[C@@H]2C(=O)N3C[C@H](O)C[C@H]3C(=O)N3CCOC[C@H]3C(=O)N[C@@H](C)C(=O)N3C[C@H](C)C[C@H]3C(=O)O[C@H]2C)cc1C [Compound 215, (S)-3-(3,5-difluorophenyl)-2-(3-(3,4-dimethylphenyl)ureido)-N-((6aS,8R,12S,13S,15aS,17R,21S,23aS)-8-hydroxy-13,17,21-trimethyl-6,11,15,20,23-pentaoxooctadecahydro-6H,11H,15H-[1,4]oxazino[3,4-i]dipyrrolo[2,1-c:2′,1′-l][1]oxa[4,7,10,13]tetraazacyclohexadecin-12-yl)propanamide] ({NH(3,4-Me2-phenyl)-CO}-[Phe(3,5-F2)][aThr][Hyp][Morpholine(3S-CO)]A[Pro(4R-Me)]; ester 2-C) |  |  |  | 0.8 (≈ 0.672 µg/mL) |  |  | < 0.2
C[C@@H]1C[C@H]2C(=O)OC[C@H](NC(=O)[C@H](Cc3cc(F)cc(F)c3)NC(=O)Nc3ccc4c(c3)OCO4)C(=O)N3C[C@H](O)C[C@H]3C(=O)N3CCOC[C@H]3C(=O)N[C@@H](C)C(=O)N2C1 [Compound 318, (S)-2-(3-(benzo[d][1,3]dioxol-5-yl)ureido)-3-(3,5-difluorophenyl)-N-((6aS,8R,12S,15aS,17R,21S,23aS)-8-hydroxy-17,21-dimethyl-6,11,15,20,23-pentaoxooctadecahydro-6H,11H,15H-[1,4]oxazino[3,4-i]dipyrrolo[2,1-c:2′,1′-l][1]oxa[4,7,10,13]tetraazacyclo-hexadecin-12-yl)propanamide] ({NH(1,3-benzodioxol-5-yl)-CO}-[Phe(3,5-F2)]S[Hyp][Morpholine(3S-CO)]A[Pro(4R-Me)]; ester 2-C) |  |  |  | 100 (≈ 84.2 µg/mL) | > 100 | > 20 | 
CCc1ccc(NC(=O)N[C@@H](Cc2cc(F)cc(F)c2)C(=O)N[C@@H]2C(=O)N3C[C@H](O)C[C@H]3C(=O)N3CCCC[C@H]3C(=O)N[C@@H](C)C(=O)N3C[C@H](C)C[C@H]3C(=O)O[C@H]2C)cc1 [Compound 211, (S)-3-(3,5-difluorophenyl)-2-(3-(4-ethylphenyl)ureido)-N-((2R,6S,8aS,14aS,16R,20S,21S,23aS)-16-hydroxy-2,6,21-trimethyl-5,8,14,19,23-pentaoxooctadecahydro-1H,5H,14H,19H-pyrido[2,1-i]dipyrrolo[2,1-c:2′,1′-l][1]oxa[4,7,10,13]tetraazacyclohexadecin-20-yl)propanamide] ({NH(4-Et-phenyl)-CO}-[Phe(3,5-F2)][aThr][Hyp][Pip]A[Pro(4R-Me)]; ester 2-C) |  |  | >200 | 0.04 (≈ 0.0335 µg/mL) |  |  | 0.005 (≈ 0.00419 µg/mL)
